The term pIC50 denotes −log10 of the IC50, conventionally taken in molar units. Low values mean a large IC50, high ones a small IC50.

For 2 compounds, EC50 and IC50 results are on record in US10532065B2, “Bisphosphonic acid derivative and application for same” (NAGASAKI UNIVERSITY, priority 2014, dated 2020).

Holding throughout (assay type): cell-based
Experiment [1] deals with MOLT-4 cells / γδ T cells. The experiment can be described thus: TNF-α production from γδ T cells stimulated by compound-pretreated MOLT-4 cells. To be noted: MOLT-4, Acute lymphoblastic leukemia, 4 hr pretreatment, 16 hr with γδ T cells, read-out: TNF-α50. As for the experimental part: (§1) Since the above-mentioned results of Experimental Example confirm that the activity of bisphosphonic acids becomes high by POM esterification in various tumor cells, the TNF-α production induction ability of more number of tumor cells was quantitatively studied. […] Thereto was added a solution (500 μl) of compound 7 obtained by serially diluting 10 mM stock solution 10-fold from 20 μM, or a solution (500 μl) of compound 14 obtained by serially diluting 10 mM stock solution 10-fold from 200 μM, and the cells were suspended well. These conical tubes were stood at 37° C. for 4 hr, and the cells were washed 3 times with 5 ml of culture medium. To these cells was added 500 μl of medium, and the cells were suspended well. […] The cell culture medium was suspended well, and the plate was centrifuged at 1,700 rpm, 4° C. for 2 min and the culture supernatant (150 μl) was taken and placed in another round-bottomed 96 well plate. The plate was frozen at −80° C. overnight, left standing at room temperature for 1 hr, stirred well and 100 μl thereof was subjected to ELISA of TNF-α. The content of TNF-α was calculated from the analytical curve of TNF-α. These were performed in triplicate, and TNF-α50 of bisphosphonic acid POM ester derivative (compound 7) and bisphosphonic acid (compound 14) was calculated and summarized in Table 8.

Another experiment has as its system PEER cells. Kind of experiment: PEER tumor cell growth inhibition (CellTiterGlo). To be noted: T cell acute lymphocytic leukemia, 4 days culture. In general terms: ATP-based viability assays read luminescence as a measure of living cells.
The test system of the next experiment is THP-1 cells / γδ T cells. The experiment can be described thus: TNF-α production from γδ T cells stimulated by compound-pretreated THP-1 cells. To be noted: THP-1, Acute monocytic leukemia, 4 hr pretreatment, 16 hr with γδ T cells, read-out: TNF-α50. The procedure: as §1
For a further experiment, the system named is THP-1 cells. Kind of experiment: THP-1 tumor cell growth inhibition (CellTiterGlo). To be noted: THP-1, Acute monocytic leukemia, 4 days culture.
The subject of another experiment is MKN1 cells / γδ T cells. Kind of experiment: TNF-α production from γδ T cells stimulated by compound-pretreated MKN1 cells. As to conditions: MKN1, Gastric cancer, 4 hr pretreatment, 16 hr with γδ T cells, read-out: TNF-α50. As for the experimental part:
as §1

A further experiment concerns Daudi cells. Kind of experiment: Daudi tumor cell growth inhibition (CellTiterGlo). To be noted: Burkitt's lymphoma, 4 days culture.
Another experiment deals with LK-2 cells / γδ T cells. Kind of experiment: TNF-α production from γδ T cells stimulated by compound-pretreated LK-2 cells. To be noted: LK-2, Lung cancer, 4 hr pretreatment, 16 hr with γδ T cells, read-out: TNF-α50. The procedure: as §1
A further experiment deals with PK1 cells / γδ T cells. The experiment can be described thus: TNF-α production from γδ T cells stimulated by compound-pretreated PK1 cells. As to conditions: PK1, Pancreatic cancer, 4 hr pretreatment, 16 hr with γδ T cells, read-out: TNF-α50. As for the experimental part:
as §1

In a further experiment the test system is PC-3 cells. The experiment can be described thus: PC-3 tumor cell growth inhibition (CellTiterGlo). To be noted: PC-3, Prostate cancer, 4 days culture.
Experiment [2] deals with HMC-1-8 cells / γδ T cells. Kind of experiment: TNF-α production from γδ T cells stimulated by compound-pretreated HMC-1-8 cells. To be noted: HMC-1-8, Mammary carcinoma, 4 hr pretreatment, 16 hr with γδ T cells, read-out: TNF-α50. The procedure: as §1

pEC50, pIC50: −log10 of the molar value. Like-named read-outs stand apart in the source and are kept apart here.

Experimental for Daudi cells: (§2) To quantitatively study an action of compound 7, which is a bisphosphonic acid POM ester derivative, on various hematologic tumor-derived lymphoma and myeloidic leukemia cells, the concentration of a compound that inhibits cell proliferation to half was calculated as IC50, and a direct antitumor effect was studied from the value thereof. […] First, MOLT-4, THP-1, SCC-3, PEER, RAMOS-RA1, C1R, MOLT-3, Raji, U937, K562, Daudi were cultured in RPMI1640 medium supplemented with 10% calf serum at 37° C. under 5% CO2 atmosphere while maintaining log phase. The cells were recovered, and centrifuged at 1,700 rpm, 4° C. for 5 min. The supernatant was removed, and suspended in RPMI1640 medium supplemented with 10% calf serum to 500 cells/50 μl. On the other hand, 10 mM stock solution of compound 7 which is a bisphosphonic acid POM ester derivative was serially diluted 2-fold from 200 μM. In addition, 10 mM stock solution of compound 14 which is bisphosphonic acid was serially diluted 2-fold from 2 mM. Then, the cell suspension (50 μl, 500 cells) and the compound solution (50 μl) were added to a flat-bottomed 96 well plate and cultured at 37° C. under 5% CO2 atmosphere for 4 days. Then, 100 μl of CellTiterGlo solution was added, and the mixture was pipetted 10 strokes, and transferred to a 96 well OptiPlate. […]
Experimental for PC-3 cells: First, EJ-1, 786-0, MKN1, OST, PC-3, PK-1, LK-2, G-361, TFK-1, MRK-nu-1 were cultured in RPMI1640 medium supplemented with 10% calf serum at 37° C. under 5% CO2 atmosphere while maintaining log phase. The cells were recovered by a conventional EDTA trypsin treatment, and centrifuged at 1,700 rpm, 4° C. for 5 min. The supernatant was removed, and suspended in RPMI1640 medium supplemented with 10% calf serum to 500 cells/50 μl. On the other hand, 10 mM stock solution of compound 7 which is a bisphosphonic acid POM ester derivative was serially diluted 2-fold from 200 pM. In addition, 10 mM stock solution of compound 14 which is bisphosphonic acid was serially diluted 2-fold from 2 mM. Then, the cell suspension (50 μl, 500 cells) and the compound solution (50 μl) were added to a flat-bottomed 96 well plate and cultured at 37° C. under 5% CO2 atmosphere for 4 days. Then, 100 μl of CellTiterGlo solution was added, and the mixture was pipetted 10 strokes, and transferred to a 96 well OptiPlate. After standing at room temperature for 10 min, the luminescence was measured by a luminometer and IC50 value was calculated.
Experimental for PEER cells: as §2

On to `CC(C)(C)C(=O)OCOP(=O)(OCOC(=O)C(C)(C)C)C(CNc1nccs1)P(=O)(OCOC(=O)C(C)(C)C)OCOC(=O)C(C)(C)C` [Compound 7, tetrakispivaloyloxymethyl 2-(thiazol-2-ylamino) ethylidene-1,1-bisphosphonate], for which the pEC50 was 7.23 in [1]; 6.52 with THP-1 cells / γδ T cells; 6.25 in the experiment with MKN1 cells / γδ T cells; 7.01 with LK-2 cells / γδ T cells; 6.35 in the experiment on PK1 cells / γδ T cells; 6.04 in experiment [2]. Moreover, the negative-log IC50 (pIC50) was 7.64 in the experiment on PEER cells, 7.46 in the experiment with THP-1 cells, 6.37 in the experiment on Daudi cells and 6.66 in the experiment on PC-3 cells.

With `O=P(O)(O)C(CNc1nccs1)P(=O)(O)O` [Compound 14, 2-(thiazol-2-ylamino)ethylidene-1,1-bisphosphonic Acid, reference compound], the pEC50 in experiment [1] (Homo sapiens) is less than 4.00; in the experiment with THP-1 cells / γδ T cells (Homo sapiens), less than 4.00; in the experiment with MKN1 cells / γδ T cells (Homo sapiens, MKN-1), 4.05; with LK-2 cells / γδ T cells (Homo sapiens), less than 4.00; with PK1 cells / γδ T cells (PK-1), less than 4.00; in experiment [2] (T-cell) it was less than 4.00. Also, the negative logarithm of the IC50 (pIC50) in the experiment on PEER cells (96 h) was 4.09; in the experiment with THP-1 cells (Homo sapiens, 96 h), 3.89; with Daudi cells (Homo sapiens, 96 h), 4.12; with PC-3 cells (Homo sapiens, 96 h), 4.00.
